Target: Histone deacetylase
Assay: In vitro residual activity against Histone deacetylase (HDAC) at 1 uM concentration

How did the residual activity turn out when `CN(C)c1ccc(CNCCCCNC(=O)CCCCC(=O)NO)cc1.O=C(O)C(F)(F)F` was run?
The residual activity was 89.7%.

For `Br.CN(C)c1ccc(CN(CCCNCCCCN)C(=O)CCCCC(=O)NO)cc1`, which residual activity is on record?
Its residual activity is 40%.

With `O=C(CCCCC(=O)NCCCCNCc1ccccc1-c1ccccc1)NO` as the compound, how does the residual activity read?
The residual activity was 83.7%.

`Cc1ccc(CNCCCCNC(=O)CCCCCCC(=O)NO)cc1.O=C(O)C(F)(F)F` was tested. Which residual activity did it give?
The residual activity was 46.8%.

How did the residual activity turn out when `CN(C)c1ccc(CN(CCCCN)C(=O)CCCCCCC(=O)NO)cc1.O=C(O)C(F)(F)F` was run?
Its residual activity is 84.4%.

Which residual activity does the source give for `Br.CC(C)(C)c1ccc(CNCCCCNCCCNC(=O)CCCCCCC(=O)NO)cc1` here?
The residual activity was 50.6%.

How did the residual activity turn out when `Br.CC(C)(C)c1ccc(CNCCCCNCCCNC(=O)CCCCC(=O)NO)cc1` was run?
The residual activity was 25.1%.

How did the residual activity turn out when `CN(C)c1ccc(CNCCCCNC(=O)CCCCCCC(=O)NO)cc1.O=C(O)C(F)(F)F` was run?
The residual activity was 66.1%.

How did the residual activity turn out when `O=C(CCCCC(=O)NCCCCN(Cc1ccccc1-c1ccccc1)Cc1ccccc1-c1ccccc1)NO` was run?
Its residual activity is 96.3%.

How did the residual activity turn out when `Br.O=C(CCCCC(=O)NCCCNCCCCNCCC(c1ccccc1)c1ccccc1)NO` was run?
Its residual activity is 80.2%.

For `Br.O=C(CCCCCCC(=O)NCCCNCCCCNCCC(c1ccccc1)c1ccccc1)NO`, which residual activity is on record?
Its residual activity is 26.1%.

`Br.O=C(CCCCC(=O)NCCCNCCCNCCCNCCCNCC1CCCCCC1)NO` was tested. Which residual activity did it give?
Its residual activity is 59%.

`Cc1ccc(CNCCCCNC(=O)CCCCC(=O)NO)cc1` was tested. Which residual activity did it give?
Its residual activity is 55.8%.

For `Br.CC(C)(C)c1ccc(CNCCCCNCCCNC(=O)CCCCC(=O)O)cc1`, which residual activity is on record?
Its residual activity is 98.5%.
